Test systems include UO-31 renal; HOP-62 NSCLC; HCC-2998 colon; ACHN renal; HL-60(TB) leukemia; RXF 393 renal; DU-145 prostate; SN12C renal; OVCAR-4 ovarian; 786-0 renal.
What all share (test): NCI-60 cell line screen, 48 h

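1) Cells in 96-well plates. 2) Compound, 48 h, 5 concentrations. 3) Linear interpolation between surrounding doses. 4) Unreached endpoint = highest concentration. Definition used: TGI = concentration required for complete inhibition of growth.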

Turning to `Cc1cc(C)c(P2C(=C(O[Si](C(C)C)(C(C)C)C(C)C)C(C)(C)C)C2(c2ccccc2)c2ccccc2)c(C)c1` (stereo not given), the TGI in the test on UO-31 renal, with HOP-62 NSCLC, with HCC-2998 colon, in the test on ACHN renal, with HL-60(TB) leukemia and in the test with RXF 393 renal was above 100 µM in each case. Moreover, the TGI in the test with DU-145 prostate, in the test with SN12C renal, in the test with OVCAR-4 ovarian and with 786-0 renal was above 100 µM throughout.

`CC[N+](C)(CC)CCC(O)(c1ccccc1)c1ccccc1`: the TGI in the test on UO-31 renal, in the test on HOP-62 NSCLC, with HCC-2998 colon, in the test on ACHN renal, in the test with HL-60(TB) leukemia and in the test on RXF 393 renal was above 100 µM each time. Moreover, the TGI in the test with DU-145 prostate, in the test with SN12C renal, in the test with OVCAR-4 ovarian and in the test on 786-0 renal was above 100 µM each time.

Take `COc1cc2nc(-c3ccc4ccccc4c3)[nH]c(=O)c2cc1OC`: the TGI in the test on UO-31 renal is above 100 µM; in the test with HOP-62 NSCLC, 84.3 µM; with HCC-2998 colon it was above 100 µM; in the test on ACHN renal it was above 100 µM; with HL-60(TB) leukemia it was above 100 µM; in the test on RXF 393 renal it was above 100 µM. Also, the TGI in the test on DU-145 prostate, with SN12C renal, in the test on OVCAR-4 ovarian and in the test on 786-0 renal was above 100 µM throughout.

With `O=C1CCC2(CCO1)OCCO2`, the TGI in the test with UO-31 renal, in the test with HOP-62 NSCLC, in the test on HCC-2998 colon, in the test on ACHN renal, in the test on HL-60(TB) leukemia and in the test with RXF 393 renal was above 100 µM in each case. Also, the TGI in the test with DU-145 prostate, with SN12C renal, in the test with OVCAR-4 ovarian and in the test on 786-0 renal was above 100 µM in each case.

`CC(C)=CCC[C@@H](C)C1=C(Nc2ccccc2Cl)C(O)=C(C)C(=O)C1=O`: the TGI with UO-31 renal was found to be 17.9 µM; in the test with HOP-62 NSCLC it was 22.7 µM; in the test with HCC-2998 colon it was 31 µM; with ACHN renal, 11.1 µM; in the test with HL-60(TB) leukemia, 2.94 µM; in the test on RXF 393 renal, 32.7 µM. Also, the TGI in the test with DU-145 prostate is 29.3 µM; in the test on SN12C renal it was 25.2 µM; with OVCAR-4 ovarian, 43.3 µM; in the test with 786-0 renal, above 39.1 µM.

Take `CC(=O)O[C@@H]1C[C@@]23C[C@@]24CC[C@H](OC2OCC(O)C(O)C2O)C(C)(C)[C@@H]4CC=C3[C@]2(C)C[C@@H]3OC4(C[C@@H](C)[C@@H]3[C@@]12C)OC(O)[C@@]1(C)O[C@@H]41` (stereo not given in full): the TGI in the test with UO-31 renal was above 100 µM; in the test with HOP-62 NSCLC, 78.3 µM; in the test on HCC-2998 colon, 40.5 µM; with ACHN renal, above 100 µM; with HL-60(TB) leukemia, 36.4 µM; in the test with RXF 393 renal, 37.1 µM. Also, the TGI in the test on DU-145 prostate is above 100 µM; in the test with SN12C renal it was above 100 µM; in the test on OVCAR-4 ovarian, above 100 µM; in the test on 786-0 renal, 63.1 µM.

For `c1ccc(CCNCc2ccco2)nc1`, the TGI in the test on UO-31 renal, in the test with HOP-62 NSCLC, in the test with HCC-2998 colon, in the test with ACHN renal, in the test on HL-60(TB) leukemia and with RXF 393 renal was above 100 µM in each case. Further, the TGI in the test on DU-145 prostate, in the test on SN12C renal, in the test on OVCAR-4 ovarian and in the test on 786-0 renal was above 100 µM in each case.

As to `N=C1N(S(=O)(=O)c2ccccc2)[C@@H](Cc2ccccc2)[C@H](c2ccccc2)C1(c1ccccc1)c1ccccc1`, the TGI in the test with UO-31 renal, in the test on HOP-62 NSCLC, with HCC-2998 colon, in the test with ACHN renal, in the test on HL-60(TB) leukemia and with RXF 393 renal was above 100 µM in each case. Further, the TGI with DU-145 prostate, in the test with SN12C renal, in the test on OVCAR-4 ovarian and in the test on 786-0 renal was above 100 µM throughout.

`CCOC(=O)C1(C(=O)OCC)[C@H](c2ccccc2)C2=NO[C@@H]3CCC[C@H]1[C@H]23`: the TGI in the test with UO-31 renal is above 100 µM; with HOP-62 NSCLC, above 100 µM; with HCC-2998 colon, 60 µM; in the test on ACHN renal it was above 100 µM; in the test on HL-60(TB) leukemia, above 100 µM; with RXF 393 renal it was above 100 µM. The TGI with DU-145 prostate, in the test on SN12C renal, in the test on OVCAR-4 ovarian and in the test on 786-0 renal was above 100 µM each time.

Turning to `CCCCc1cc2c(C)cc(=O)oc2c(O)c1O`, the TGI with UO-31 renal amounted to 54.6 µM; with HOP-62 NSCLC, 65.8 µM; in the test with HCC-2998 colon, 15.7 µM; with ACHN renal it was 94 µM; in the test with HL-60(TB) leukemia it was 38.4 µM; in the test with RXF 393 renal, 59.6 µM. In addition, the TGI in the test with DU-145 prostate is above 100 µM; with SN12C renal, above 100 µM; in the test on OVCAR-4 ovarian, above 100 µM; in the test on 786-0 renal, 99.4 µM.

For the compound `Cc1ccncc1.F[B-](F)(F)F.[Pt+2].c1ccc(-c2cccc(-c3ccccn3)n2)nc1`, the TGI in the test on UO-31 renal was above 27.8 µM; in the test with HOP-62 NSCLC, above 55.2 µM; in the test on HCC-2998 colon, 59.5 µM; in the test on ACHN renal it was 25.1 µM; in the test on HL-60(TB) leukemia, above 45.7 µM; in the test with RXF 393 renal, 38.4 µM. Besides, the TGI in the test with DU-145 prostate was above 100 µM; with SN12C renal it was above 100 µM; in the test with OVCAR-4 ovarian, above 100 µM; in the test on 786-0 renal it was 46.4 µM.

Regarding `Cc1cc(=O)n2nc(SCc3ccccc3)sc2n1`, the TGI is 67.5 µM in the test with UO-31 renal; above 100 µM with HOP-62 NSCLC; above 100 µM in the test on HCC-2998 colon; 56.2 µM in the test with ACHN renal; above 100 µM in the test on HL-60(TB) leukemia; above 100 µM in the test with RXF 393 renal. In addition, the TGI with DU-145 prostate, in the test with SN12C renal, in the test on OVCAR-4 ovarian and in the test with 786-0 renal was above 100 µM throughout.

Take `CCOC(=O)c1c(CN2CCNCC2)nc2ccccc2c1-c1ccccc1`: the TGI came to 21.7 µM in the test on UO-31 renal; 31 µM in the test on HOP-62 NSCLC; 3.63 µM in the test on HCC-2998 colon; 30.4 µM in the test on ACHN renal; 30.6 µM in the test on HL-60(TB) leukemia; 13.8 µM with RXF 393 renal. For the same compound, the TGI in the test on DU-145 prostate came out at 31.3 µM; in the test on SN12C renal it was 28.2 µM; with OVCAR-4 ovarian, 33.1 µM; in the test on 786-0 renal it was 25.3 µM.

For the origin of these results see PubChem BioAssay (NCI).
